Reference: ChEMBL document CHEMBL3885861, “Open TG-GATES”

Species: Rattus norvegicus
Experiment: Open TG-GATES - Regimen: Daily Repeat
Assay type: toxicity, organism-based, Sprague-Dawley
Parameters: regimen Daily Repeat, gender Male, age 6 weeks
Conditions: in vivo, po, 0 mg/kg, route gavage, dose level Control; for APTT / Bas / Eos / Fbg / Ht / Lym / MCH / MCHC / MCV / Mono / Neu / Plat / RBC / Ret / WBC: tissue Blood; for ALP / ALT / AST / BUN / CRE / DBIL / GLC / IP / K / LDH / Na / PL / RALB / TBIL / TC / TG / TP / gamma-GTP: tissue Plasma

CCCC(CCC)C(=O)O [VALPROIC ACID]
TERMINAL_BW (72 h, time 3 day): 222 g | APTT (72 h, time 3 day): 18.8 s | Bas (72 h, time 3 day): 0% | Eos (72 h, time 3 day): 1% | Fbg (72 h, time 3 day): 222.8 mg/dL | Ht (72 h, time 3 day): 37.7% | Lym (72 h, time 3 day): 82.2% | MCH (72 h, time 3 day): 21.3 pg | MCHC (72 h, time 3 day): 34.2% | MCV (72 h, time 3 day): 62.3 fL | Mono (72 h, time 3 day): 3.4% | Neu (72 h, time 3 day): 12.8% | Plat (72 h, time 3 day): 135 x10_4/uL | RBC (72 h, time 3 day): 604.8 x10_4/ul | Ret (72 h, time 3 day): 6.6% | WBC (72 h, time 3 day): 101 x10_2/uL | ALP (72 h, time 3 day): 1099.6 IU/L | ALT (72 h, time 3 day): 35.6 IU/L | AST (72 h, time 3 day): 65.4 IU/L | BUN (72 h, time 3 day): 16.2 mg/dL | CRE (72 h, time 3 day): 0.4 mg/dL | DBIL (72 h, time 3 day): 0.062 mg/dL | GLC (72 h, time 3 day): 216.2 mg/dL | IP (72 h, time 3 day): 8 mg/dL | K (72 h, time 3 day): 4.1 meq/L | LDH (72 h, time 3 day): 206.6 IU/L | Na (72 h, time 3 day): 140.8 meq/L | PL (72 h, time 3 day): 145.2 mg/dL | RALB (72 h, time 3 day): 3.3 g/dL | TBIL (72 h, time 3 day): 0.1 mg/dL | TC (72 h, time 3 day): 71.6 mg/dL | TG (72 h, time 3 day): 84.6 mg/dL | TP (72 h, time 3 day): 5.4 g/dL | gamma-GTP (72 h, time 3 day): 0.8 IU/L | TERMINAL_BW ([…], time 7 day): 256.3 g | TERMINAL_BW ([…], time 14 day): 316.1 g | TERMINAL_BW ([…], time 28 day): 396.1 g | APTT ([…], time 7 day): 19.2 s | Bas ([…], time 7 day): 0% | Eos ([…], time 7 day): 1% | Fbg ([…], time 7 day): 210.8 mg/dL | Ht ([…], time 7 day): 40.7% | Lym ([…], time 7 day): 83.8% | MCH ([…], time 7 day): 21.2 pg | MCHC ([…], time 7 day): 34.3% | MCV ([…], time 7 day): 61.9 fL | Mono ([…], time 7 day): 2.6% | Neu ([…], time 7 day): 12.4% | Plat ([…], time 7 day): 132.8 x10_4/uL | RBC ([…], time 7 day): 658.4 x10_4/ul | Ret ([…], time 7 day): 5.8% | WBC ([…], time 7 day): 96.1 x10_2/uL | APTT ([…], time 14 day): 18.3 s | Bas ([…], time 14 day): 0% | Eos ([…], time 14 day): 1% | Fbg ([…], time 14 day): 228.2 mg/dL | Ht ([…], time 14 day): 40.9% | Lym ([…], time 14 day): 78.6% | MCH ([…], time 14 day): 20.7 pg | MCHC ([…], time 14 day): 35.2% | MCV ([…], time 14 day): 58.9 fL | Mono ([…], time 14 day): 2.4% | Neu ([…], time 14 day): 17.6% | Plat ([…], time 14 day): 140.4 x10_4/uL | RBC ([…], time 14 day): 695 x10_4/ul | Ret ([…], time 14 day): 4.7% | WBC ([…], time 14 day): 114.6 x10_2/uL | APTT ([…], time 28 day): 19.4 s | Bas ([…], time 28 day): 0% | Eos ([…], time 28 day): 1% | Fbg ([…], time 28 day): 227.8 mg/dL | Ht ([…], time 28 day): 42.7% | Lym ([…], time 28 day): 83% | MCH ([…], time 28 day): 19.2 pg | MCHC ([…], time 28 day): 34.9% | MCV ([…], time 28 day): 55.1 fL | Mono ([…], time 28 day): 2.2% | Neu ([…], time 28 day): 12.8% | Plat ([…], time 28 day): 108.4 x10_4/uL | RBC ([…], time 28 day): 775.4 x10_4/ul | Ret ([…], time 28 day): 2.6% | WBC ([…], time 28 day): 129.7 x10_2/uL | ALP ([…], time 7 day): 909.6 IU/L | ALT ([…], time 7 day): 33.6 IU/L | AST ([…], time 7 day): 66 IU/L | BUN ([…], time 7 day): 17.2 mg/dL | CRE ([…], time 7 day): 0.4 mg/dL | DBIL ([…], time 7 day): 0.08 mg/dL | GLC ([…], time 7 day): 223.2 mg/dL | IP ([…], time 7 day): 8 mg/dL | K ([…], time 7 day): 3.8 meq/L | LDH ([…], time 7 day): 199.6 IU/L | Na ([…], time 7 day): 141 meq/L | PL ([…], time 7 day): 146.2 mg/dL | RALB ([…], time 7 day): 3.4 g/dL | TBIL ([…], time 7 day): 0.1 mg/dL | TC ([…], time 7 day): 68.8 mg/dL | TG ([…], time 7 day): 106.4 mg/dL | TP ([…], time 7 day): 5.5 g/dL | gamma-GTP ([…], time 7 day): 1.2 IU/L | ALP ([…], time 14 day): 946.4 IU/L | ALT ([…], time 14 day): 34.8 IU/L | AST ([…], time 14 day): 64.4 IU/L | BUN ([…], time 14 day): 19 mg/dL | CRE ([…], time 14 day): 0.4 mg/dL | DBIL ([…], time 14 day): 0.098 mg/dL | GLC ([…], time 14 day): 231.4 mg/dL | IP ([…], time 14 day): 7.1 mg/dL | K ([…], time 14 day): 3.6 meq/L | LDH ([…], time 14 day): 198.8 IU/L | Na ([…], time 14 day): 140.6 meq/L | PL ([…], time 14 day): 166 mg/dL | RALB ([…], time 14 day): 3.5 g/dL | TBIL ([…], time 14 day): 0.1 mg/dL | TC ([…], time 14 day): 77 mg/dL | TG ([…], time 14 day): 137.2 mg/dL | TP ([…], time 14 day): 5.9 g/dL | gamma-GTP ([…], time 14 day): 1.2 IU/L | ALP ([…], time 28 day): 657.8 IU/L | ALT ([…], time 28 day): 34.8 IU/L | AST ([…], time 28 day): 64.4 IU/L | BUN ([…], time 28 day): 17.6 mg/dL | CRE ([…], time 28 day): 0.5 mg/dL | DBIL ([…], time 28 day): 0.088 mg/dL | GLC ([…], time 28 day): 208.8 mg/dL | IP ([…], time 28 day): 6.9 mg/dL | K ([…], time 28 day): 3.9 meq/L | LDH ([…], time 28 day): 175.2 IU/L | Na ([…], time 28 day): 140.2 meq/L | PL ([…], time 28 day): 150.6 mg/dL | RALB ([…], time 28 day): 3.5 g/dL | TBIL ([…], time 28 day): 0.1 mg/dL | TC ([…], time 28 day): 66.4 mg/dL | TG ([…], time 28 day): 155 mg/dL | TP ([…], time 28 day): 6.1 g/dL
